According to US10550100B2, “5-[3-[piperzin-1-yl]-3-oxo-propyl]-imidazolidine-2,4-dione derivatives as ADAMTS 4 and 5 inhibitors for treating E.G. osteoarthritis” (GALAPAGOS NV, priority 2016, dated 2020):
pIC50: −log10 of the molar value.

Legend:
Format in all cases: biochemical
human ADAMTS6 = human ADAMTS6 (Homo sapiens (Human), UniProt Q9UKP5); experiment: hADAMTS-6 520 MMP FRET substrate XII cleavage assay; conditions: 37° C. for 2 h, read-out: hADAMTS-6 potency IC50
Text: The IC50 value for test compounds can be determined in a fluorescent based protease assay.
The basis for the assay is the cleavage of the substrate 520 MMP FRET substrate XII by human ADAMTS6.
The substrate contains sequence Arg-Pro-Lys-Pro-Tyr-Ala-Nva-Trp-Met-Lys (SEQ ID NO: 7) with attached a fluorescent probe and a quencher. Without ADAMTS6, the emission of the probe is quenched. If the substrate is cleaved by ADAMTS6, the emission of the probe is not quenched anymore. Inhibition of ADAMTS6 activity, will result in a decrease of the signal.
To perform the assay, 4 μL of a dilution series of compound in water, starting from 20 μM highest concentration, 1/5 dilution, is added to the wells. 2 ng ADAMTS6 enzyme is diluted in 25 mM Tris pH8.0, 0.05% CHAPS, 2.5 mM CaCl2 in a total volume of 26 μL (final concentration 0.73 nM). The reaction is started by addition of 10 μL of 1 μM 520 MMP FRET Substrate XII (final concentration, diluted in same buffer as described above) and the mixture is incubated at 37° C. for 2 h. […] After this incubation, cleavage of the substrate is measured using the Envision (Perkin Elmer, exc485/em530).

human ADAMTS-5 = human ADAMTS-5 (Homo sapiens (Human), UniProt Q9UNA0); experiment: hADAMTS-5 TBIS-1 cleavage assay, Protocol 3; conditions: Protocol 3, TBIS-1 substrate, 90 min at 37° C.; read-out: hADAMTS-5 potency IC50
Chain of human ADAMTS-5 (Q9UNA0 262-930): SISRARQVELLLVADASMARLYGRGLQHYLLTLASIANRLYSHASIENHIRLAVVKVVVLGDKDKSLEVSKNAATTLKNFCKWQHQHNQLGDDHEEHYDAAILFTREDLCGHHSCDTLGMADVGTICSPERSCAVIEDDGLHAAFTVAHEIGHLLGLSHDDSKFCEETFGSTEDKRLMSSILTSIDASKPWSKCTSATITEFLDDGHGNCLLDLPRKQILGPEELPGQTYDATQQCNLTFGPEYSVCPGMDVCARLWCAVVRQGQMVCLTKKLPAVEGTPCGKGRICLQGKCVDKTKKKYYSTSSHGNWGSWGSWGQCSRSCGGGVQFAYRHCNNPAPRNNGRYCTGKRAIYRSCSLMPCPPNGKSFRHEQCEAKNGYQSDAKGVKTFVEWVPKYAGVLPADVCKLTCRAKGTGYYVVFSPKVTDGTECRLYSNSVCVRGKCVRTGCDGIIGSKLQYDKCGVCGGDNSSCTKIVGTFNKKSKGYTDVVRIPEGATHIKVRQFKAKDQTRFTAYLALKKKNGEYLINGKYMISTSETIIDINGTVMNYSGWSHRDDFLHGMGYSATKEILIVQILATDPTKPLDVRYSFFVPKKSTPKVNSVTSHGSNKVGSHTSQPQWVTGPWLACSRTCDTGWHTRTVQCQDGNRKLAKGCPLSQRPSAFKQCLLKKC
Method: The reaction is initiated by adding to the assay plate TBIS-1 (10 μL, 4.5 μM, Anaspec) in the same buffer.
Finally, the fluorescence is read on the Envision (Perkin Elmer) after an incubation of 90 min at 37° C. (Excitation 485 nm, emission 530).

human TACE = human TACE (Homo sapiens (Human), UniProt P78536); experiment: hTACE 5FAM-[…]-5TAMRA cleavage assay; conditions: 5FAM-[…]-5TAMRA, 75 min at room temperature; read-out: hTACE potency IC50
Chain of human TACE (P78536 215-671): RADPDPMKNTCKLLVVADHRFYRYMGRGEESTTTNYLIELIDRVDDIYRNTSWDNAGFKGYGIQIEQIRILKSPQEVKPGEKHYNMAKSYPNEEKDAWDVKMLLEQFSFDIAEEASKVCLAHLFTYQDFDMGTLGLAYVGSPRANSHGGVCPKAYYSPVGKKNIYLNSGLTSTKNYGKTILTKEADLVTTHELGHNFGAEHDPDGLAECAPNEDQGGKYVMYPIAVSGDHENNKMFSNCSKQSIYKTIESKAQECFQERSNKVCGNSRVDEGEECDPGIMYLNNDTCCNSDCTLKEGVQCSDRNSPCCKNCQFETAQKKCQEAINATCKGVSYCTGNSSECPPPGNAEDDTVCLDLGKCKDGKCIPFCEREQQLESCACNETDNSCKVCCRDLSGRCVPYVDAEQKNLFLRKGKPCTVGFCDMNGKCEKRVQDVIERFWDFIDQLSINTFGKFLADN
Method: Finally, the fluorescence is read on the Envision (Perkin Elmer) after an incubation of 75 min at room temperature (Excitation 485 nm, Emission 530).

Chain of human ADAMTS6 (Q9UKP5 other isoform, or with tags, fused parts or gaps): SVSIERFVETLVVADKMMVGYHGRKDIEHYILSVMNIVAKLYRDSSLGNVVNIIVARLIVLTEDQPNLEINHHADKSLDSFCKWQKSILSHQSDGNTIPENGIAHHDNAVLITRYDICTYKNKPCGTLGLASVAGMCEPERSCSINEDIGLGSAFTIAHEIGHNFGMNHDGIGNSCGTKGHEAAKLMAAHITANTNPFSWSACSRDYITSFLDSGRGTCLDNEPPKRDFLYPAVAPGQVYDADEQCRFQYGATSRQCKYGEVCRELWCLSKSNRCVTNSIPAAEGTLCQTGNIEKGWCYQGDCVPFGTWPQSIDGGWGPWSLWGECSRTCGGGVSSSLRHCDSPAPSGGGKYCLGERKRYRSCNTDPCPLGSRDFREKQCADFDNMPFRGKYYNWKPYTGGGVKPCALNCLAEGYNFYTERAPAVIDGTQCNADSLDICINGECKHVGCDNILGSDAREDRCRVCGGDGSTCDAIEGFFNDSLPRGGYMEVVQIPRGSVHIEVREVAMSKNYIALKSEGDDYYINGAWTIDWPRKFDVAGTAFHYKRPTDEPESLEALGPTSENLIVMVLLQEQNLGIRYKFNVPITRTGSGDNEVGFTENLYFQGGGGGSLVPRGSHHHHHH

pIC50 (human ADAMTS6) | pIC50 (human ADAMTS-5) | pIC50 (human TACE) | SMILES
7.60 to 12.00 | – | – | COc1cc(C2CCN(C(=O)CCC3(C)NC(=O)NC3=O)CC2)c(C)cc1Cl (stereo not shown) [Cpd 37, 5-(3-(4-(4-chloro-5-methoxy-2-methylphenyl)piperidin-1-yl)-3-oxopropyl)-5-methyl-imidazolidine-2,4-dione]
7.30 to 7.60 | – | – | COc1cc(C2CCN(C(=O)CC[C@H]3NC(=O)NC3=O)CC2)cc(N(C)C)c1Cl [Cpd 91]
< 7.00 | < 7.00 | – | COc1ccc(C2CCN(C(=O)CC[C@H]3NC(=O)NC3=O)CC2)cc1 [Cpd 30, (R)-5-(3-(4-(4-methoxyphenyl)piperidin-1-yl)-3-oxopropyl) imidazolidine-2,4-dione]
7.60 to 12.00 | – | 7.00 to 7.30 | COc1cc(C2CCN(C(=O)CC[C@H]3NC(=O)NC3=O)CC2)cc(OC)c1F [Cpd 82, (5R)-5-[3-[4-(4-fluoro-3,5-dimethoxy-phenyl)-1-piperidyl]-3-oxo-propyl] imidazolidine-2,4-dione]
< 7.00 | – | – | Cc1cc(Cl)ccc1C1CCN(C(=O)CC[C@H]2NC(=O)NC2=O)CC1 [Cpd 59, (R)-5-(3-(4-(4-chloro-2-methylphenyl)piperidin-1-yl)-3-oxopropyl) imidazolidine-2,4-dione]
7.60 to 12.00 | – | 7.00 to 7.30 | COc1cc(C2CCN(C(=O)CC[C@H]3NC(=O)NC3=O)CC2)cc(Cl)c1Cl [Cpd 69, (R)-5-(3-(4-(3,4-dichloro-5-methoxyphenyl)piperidin-1-yl)-3-oxopropyl) imidazolidine-2,4-dione]
7.60 to 12.00 | – | 7.00 to 7.30 | COc1cc(C2CCN(C(=O)CC[C@@]3(C)NC(=O)NC3=O)CC2)cc(Cl)c1Cl [Cpd 68, (R)-5-(3-(4-(3,4-dichloro-5-methoxyphenyl)piperidin-1-yl)-3-oxopropyl)-5-methylimidazolidine-2,4-dione]
7.60 to 12.00 | – | – | COc1cc(Cl)c(Cl)cc1C1CCN(C(=O)CCC2(C)NC(=O)NC2=O)CC1 (stereo not shown) [Cpd 62, 5-(3-(4-(4,5-dichloro-2-methoxyphenyl)piperidin-1-yl)-3-oxopropyl)-5-methyl-imidazolidine-2,4-dione]

The next lines start with the molecule.

SMILES | pIC50 (human ADAMTS6) | pIC50 (human ADAMTS-5) | pIC50 (human TACE)
COc1ccc(C2CCN(C(=O)CCC3(C)NC(=O)NC3=O)CC2)cc1 (stereo not shown) [Cpd 31, 5-(3-(4-(4-methoxyphenyl)piperidin-1-yl)-3-oxopropyl)-5-methyl-imidazolidine-2,4-dione] | < 7.00 | < 7.00 | –
Cc1cc(C2CCN(C(=O)CC[C@@]3(C)NC(=O)NC3=O)CC2)ccc1Cl [Cpd 95, (5R)-5-[3-[4-(4-chloro-3-methyl-phenyl)-1-piperidyl]-3-oxo-propyl]-5-methyl-imidazolidine-2,4-dione] | 7.60 to 12.00 | – | –
Cc1cc(Cl)ccc1C1CCN(C(=O)CCC2(C)NC(=O)NC2=O)CC1 (stereo not shown) [Cpd 60, 5-(3-(4-(4-chloro-2-methylphenyl)piperidin-1-yl)-3-oxopropyl)-5-methyl-imidazolidine-2,4-dione] | 7.00 to 7.30 | < 7.00 | –
CC1(CCC(=O)N2CCC(c3ccc(-c4ccccc4F)s3)CC2)NC(=O)NC1=O (stereo not shown) [Cpd 112, 5-[3-[4-[5-(2-fluorophenyl)-2-thienyl]-1-piperidyl]-3-oxo-propyl]-5-methyl-imidazolidine-2,4-dione] | 7.00 to 7.30 | < 7.00 | –
C[C@]1(CCC(=O)N2CCC(c3ccc(Cl)c(C(F)(F)F)c3)CC2)NC(=O)NC1=O [Cpd 94, (5R)-5-[3-[4-[4-chloro-3-(trifluoromethyl)phenyl]-1-piperidyl]-3-oxo-propyl]-5-methyl-imidazolidine-2,4-dione] | 7.30 to 7.60 | – | –
COc1cc(C2CCN(C(=O)CC[C@@]3(C)NC(=O)NC3=O)CC2)c(C)cc1F [Cpd 83, (5R)-5-[3-[4-(4-fluoro-5-methoxy-2-methyl-phenyl)-1-piperidyl]-3-oxo-propyl]-5-methyl-imidazolidine-2,4-dione] | 7.30 to 7.60 | – | –
COc1cc(Cl)c(Cl)cc1C1CCN(C(=O)CCC2(c3cccc(C)n3)NC(=O)NC2=O)CC1 (stereo not shown) [Cpd 92, 5-[3-[4-(4,5-dichloro-2-methoxy-phenyl)-1-piperidyl]-3-oxo-propyl]-5-(6-methyl-2-pyridyl) imidazolidine-2,4-dione] | 7.60 to 12.00 | – | –
